The values below come from patent publication US20110195116A1, “RATE MODULATED DELIVERY OF DRUGS FROM A COMPOSITE DELIVERY SYSTEM” (ADCOCK INGRAM HEALTHCARE PTY LIMITED, priority 2008, published 2011).

The conditions of data set [1]: cited from earlier work.
Data set [2] in a line: dissolution study, USP paddle, phosphate buffer pH 6.8. In kind it is physicochemical. The procedure: Initial dissolution characteristics of the combined APIs paracetamol, tramadol hydrochloride and diclofenac potassium; individual and combined cellulose and ethylene oxide-based polymers were determined by producing experimental batches of tablets. These were produced on a Manesty Single Punch Type F3 machine by direct compression and wet granulation techniques into monolithic matrix and multi-layered systems, as shown in FIG. 1. In situ crosslinking of various alginate, pectin and eudragit polymers with salts such as zinc gluconate was also investigated for an influence on the release characteristics of the solid dosage system.
(§1) Dissolution studies were conducted using a USP rotating paddle method (Hanson Virtual Instruments SR8 Plus Dissolution Test Stations) at 50 rpm in phosphate buffer pH 6.8 (900 mL, 37° C.±0.5° C.) for each formulation employing an autosampler (Hanson Research Auto Plus Maximiser and AutoPlus™ MultiFill™). Samples of 1.6 mL were withdrawn over a period of 12 to 20 hours and analysed via HPLC. Release profiles in simulated gastric fluid pH 1.2 without pepsin over a period of four hours were determined to identify any site-specific release induced by the polymers. The dissolution studies were performed under the conditions described in Table 1.

For data set [3] the following is noted: in vivo; cited from earlier work.
A short description of data set [4]: dissolution study, USP paddle, simulated gastric fluid pH 1.2 without pepsin. In kind it is physicochemical. The note with it: cellulose, polyethylene oxide and alginate polymer formulations. The procedure:
as §1
The alginate and zinc gluconate addition was then included in a formulation where the HEC and HPC had been further reduced to 45.31 mg and 90.6 mg respectively (FIG. 16).
In order to establish the potential site-specific release potential of the polymeric dosage form, formulations consisting of cellulose, polyethylene oxide and alginate polymers were subjected to dissolution studies in simulated gastric fluid pH 1.2 without pepsin.

The mark [5] stands for this setting: dosage form with pectin, alginate and eudragit polymers crosslinked with metallic salts.

SMILES strings stand for the structures. Structures can show the parent of a compound that is named as a salt. Where two headings read alike, the source gives them in different places.

Turning to `O=C(O)Cc1ccccc1Nc1c(Cl)cccc1Cl` [Diclofenac], in data set [1] (at pH 6.8), the water solubility was 0.187%. For the compound `CC(=O)Nc1ccc(O)cc1` [Paracetamol], in data set [2] (setting [5]), the release kinetics result is “first-order”. Besides, in data set [1] (at 20° C.), the water solubility was 1.4%. With `COc1cccc(C2(O)CCCCC2CN(C)C)c1` (stereo not drawn) [Tramadol], the “elimination half-life (t1/2)” value in data set [3] was 6 h. For the compound `O=C(O)Cc1ccccc1Nc1c(Cl)cccc1Cl` [diclofenac potassium], the release kinetics entry is “zero-order” in data set [2] (cellulose and polyethylene oxide-based formulation compressed as layered dosage form); “first-order” in data set [2] (cellulose and polyethylene oxide-based formulation compressed as monolithic matrix); “zero-order” in data set [2] (setting [5]). The “release in simulated gastric fluid” value in data set [4] is recorded as “not released”. `COc1cccc(C2(O)CCCCC2CN(C)C)c1` (stereo not drawn) [tramadol hydrochloride]: the release kinetics result in data set [2] (setting [5]) is recorded as “first-order”.
